What was measured:
HaCaT cells [1] = assay: Cell motility of keratinocytes, indirubin derivative and low-molecular-weight compound mixtures (Test Example 3); format: cell-based, human; details: HaCaT scratch; 18 hours later; methyl vanillate 5 μM, hesperidin 1 μM, quercitrin 1 μM
Experimental: For analysis of wound healing effect, cell motility was compared for treatment with the indirubin derivative prepared in Example 2, the methyl vanillate of Example 5, the hesperidin of Example 6, the quercitrin of Example 7 and the mixtures prepared in Examples 9-11.
HaCaT cells, which are human keratinocytes playing an important role in wound healing, were cultured in a 12-well plate for 24 hours using DMEM containing 10% FBS. Then, after replacing the medium with DMEM containing 5% FBS, a scratch was made at the center of the cells using a 1000p (blue) tip. Then, after treating the scratched area with each of the indirubin derivative prepared in Example 2, the methyl vanillate of Example 5, the hesperidin of Example 6, the quercitrin of Example 7 and the mixtures prepared in Examples 9-11 at a concentration of 1 μM or 5 μM, cell motility was observed 18 hours later.
Specifically, the concentration of the indirubin derivative prepared in Example 2, the hesperidin of Example 6 and the quercitrin of Example 7 was 1 μM, the concentration of the methyl vanillate of Example 5 was 5 μM, and the mixtures prepared in Examples 9-11 were prepared by mixing 1 μM indirubin derivative with 5 μM methyl vanillate, 1 μM hesperidin or 1 μM quercitrin.
The control group (control) means non-treated keratinocytes. […]

HaCaT cells [2] = assay: Cell migration of keratinocytes, Euodia sutchuenensis Dode extract and indirubin derivative mixtures (Test Example 5); format: cell-based, human; details: 18 hours
Experimental: Cell migration was compared after treating cells with the indirubin derivative of Example 1 (0.1 μM, 1 μM), the indirubin derivative of Example 2 (0.1 μM, 1 μM) or the mixtures of Examples 12 and 13 (0.1 μM and 1 μM indirubin derivative mixed with 1 μg/mL Euodia sutchuenensis Dode extract, respectively).
A non-treated control group (con), a group treated with the Euodia sutchuenensis Dode extract of Example 8 (1 μg/mL) alone (Euodia sutchuenensis Dode 1 μg/mL) and a positive control group treated with 100 μM VPA (valproic acid) were prepared.
Experiment was conducted as follows. First, HaCaT cells were cultured in a 12-well plate for 24 hours. The HaCaT cells are human keratinocytes which are known to play an important role in wound healing. DMEM containing 10% FBS was used. After the culturing for 24 hours was completed, the medium was replaced with DMEM containing 5% FBS and a scratch was made at the center of the cells using a 1000p (blue) tip. Then, after treating the scratched area with a sample, cell migration and motility was observed 18 hours later.
As the sample, the indirubin derivative of Example 1 (0.1 μM, 1 μM), the indirubin derivative of Example 2 (0.1 μM, 1 μM) or the mixtures of Examples 12 and 13 (0.1 μM and 1 μM indirubin derivative mixed with 1 μg/mL Euodia sutchuenensis Dode extract, respectively) was used. […]

mouse acute wound [3] = assay: Wound healing effect of extract and indirubin derivative mixtures in mouse acute wound (Test Example 6); format: in vivo; details: mouse acute wound tissue, fluorescence staining
Experimental: Wound healing-promoting effect was investigated after treating an animal model with the indirubin derivative of Example 1 (0.5 mM), the indirubin derivative of Example 2 (0.5 mM) or the mixtures of Examples 12 and 13 (0.5 mM indirubin derivative mixed with 1 μg/mL Euodia sutchuenensis Dode extract).
The hair on the back of 7-week-old C3H mouse that entered the resting period was removed and a 1.5×1.5 cm^2 wound was made on the hair-removed region. A sample was applied to a positive control group, once daily for 12 days. After measuring wound size of the experimental animal on days 0 and 12, the wound tissue was fixed by immersing in 4% paraformaldehyde, embedded in paraffin and then sliced into 4 μm thickness. The sliced tissue was deparaffinized, rehydrated and then the degree of re-epithelialization was compared. Masson's trichrome staining and Picrosirius red staining were conducted for evaluation of the degree of collagen synthesis. For Masson's trichrome staining, a slide was immersed in Weigert's iron hematoxylin solution for 10 minutes and in Biebrich scarlet-acid fuchsin and aniline blue for 5 minutes each. […] The sliced skin tissue was fluorescence-stained using β-catenin, PCNA, keratin 14 and collagen I antibodies and was observed using a fluorescence microscope (FIG. 9a). […]

mouse acute wound [4] = assay: Wound healing effect of mixtures in mouse acute wound (Test Example 4); format: in vivo; details: C3H mouse; Example 2 0.5 mM, Example 5 2.5 mM, 5 mM; 20 μL once daily for 12 days
mouse acute wound [5] = assay: Wound healing and collagen synthesis in mouse acute wound (Test Example 2); format: in vivo
Experimental: The wound healing-promoting effect of the indirubin derivatives prepared in Examples 1 and 2, the indirubin derivative of Comparative Example 1 (10) and EGF, known as an existing wound healing agent, as a positive control group was investigated through animal experiments.
The hair on the back of 7-week-old C3H mouse that entered the resting period was removed and a 1.5×1.5 cm^2 wound was made on the hair-removed region. 20 μL of a vehicle (10% DMSO, 45% ethanol, 18% propylene glycol, 27% water) and the indirubin derivative of Comparative Example 1 (10) were applied to a control group and a comparison group, respectively, once daily for 12 days. For the positive control group, 100 μM EGF was applied once daily for 12 days. For a first test group, 20 μL of the indirubin derivative of Example 2 (A3051) was applied once daily for 12 days. For a second test group, 20 μL of the indirubin derivative of Example 1 (A3334) was applied once daily for 12 days.
The tissue of each experimental mouse was fixed by immersing in 4% paraformaldehyde, embedded in paraffin and then sliced into 4 μm thickness. The sliced tissue was deparaffinized, rehydrated and then stained with Masson's trichrome and Picrosirius red for evaluation of the degree of collagen synthesis. For Masson's trichrome staining, a slide was placed in Weigert's iron hematoxylin solution for 10 minutes and in Biebrich scarlet-acid fuchsin and aniline blue for 5 minutes each. For Picrosirius red staining, a slide was placed in Weigert's solution for 8 minutes and in Picrosirius red for 1 hour.

diabetic wound = assay: Effect of treating diabetic wound (Test Example 9); format: in vivo; details: diabetes-induced mouse; for healing of the wound site: 0.8×0.8 cm^2 wound, 20 μL once daily for 14 days, VPA 500 mM; for re-epithelialization (H&E): 14 days
Experimental: 3-week-old male C57BL/6N mice (Koatech, South Korea) were used. After accustoming the mice for a week to normal feed, high-fat diet (Product Data—D12492; 60% kcal, hereinafter referred to as HFD) was given for 4 weeks. Then, a diabetes-induced animal model was prepared by intraperitoneally injecting 40 mg/kg streptozocin (Sigma) once daily for a week. The mice were kept in cages maintained at constant temperature (22±2° C.) and relative humidity (40-60%) with light/dark cycles of 12/12 hours.
6 mice of the normal control group and 6 mice per test group of the diabetes-induced animal model of Test Example 7 were prepared. The hair on the back was removed and a 0.8×0.8 cm^2 wound was made on the hair-removed region.
For the normal control group, only 20 μL of an emulsion solution (Kollipore®EL:Tween 80:PEG 400 at a mixing weight ratio of 80:6:14) was applied to the wound site once daily for 14 days. For the negative control group, only 20 μL of the emulsion solution (Kollipore®EL:Tween 80:PEG 400 at a mixing weight ratio of 80:6:14) was applied to the wound site once daily for 14 days. For the positive control group (VPA), 20 μL of a composition prepared by mixing 500 mM VPA in an emulsion solution was applied to the wound site once daily for 14 days.
For the first test group, 20 μL of A3334 (Example 1) was applied to the wound site once daily for 14 days. For the second test group, 20 μL of A3051 (Example 2) was applied to the wound site once daily for 14 days. Then, the wound site of each group was photographed and the wound area was measured (FIG. 14). On day 14, after euthanizing the mouse with carbon dioxide, the wound site tissue was harvested and the histological structure was observed.
Specifically, the wound site tissue obtained from the normal control group, the negative control group, the positive control group or the first or second test group was fixed by immersing in 4% paraformaldehyde, embedded in paraffin and then sliced into 4 μm thickness. The sliced tissue was deparaffinized, rehydrated and then stained with hematoxylin (purple) and eosin (pink) for observation of histological structure.
Specifically, the wound site tissue obtained from the normal control group, the negative control group, the positive control group or the first or second test group was fixed by immersing in 4% paraformaldehyde, embedded in paraffin and then sliced into 4 μm thickness. The sliced tissue was deparaffinized, rehydrated and then stained with Van Gieson's stain and Masson's trichrome for observation of histological structure. For the Van Gieson's staining, the sliced tissue was immersed in Weigert's solution for 10 minutes and in picrofuchsin solution for 2 minutes. For the Masson's trichrome staining, the sliced tissue was immersed in Weigert's iron hematoxylin solution for 10 minutes and in Biebrich scarlet-acid fuchsin and Aniline blue for 5 minutes each.
Specifically, the wound site tissue obtained from the normal control group, the negative control group, the positive control group or the first and second test groups was fixed by immersing in 4% paraformaldehyde and angiogenesis was observed.

[6] = C3H mouse acute wound, once daily for 12 days, vs EGF

COc1ccc([C@@H]2CC(=O)c3c(O)cc(O[C@@H]4O[C@H](CO[C@@H]5O[C@@H](C)[C@H](O)[C@@H](O)[C@H]5O)[C@@H](O)[C@H](O)[C@H]4O)cc3O2)cc1O [Example 6, Hesperidin]
cell motility compared with the control group (HaCaT cells [1]): no difference in cell motility

CO/N=C1/C(=C2/C(=O)Nc3cc(Cl)c(Cl)cc32)Nc2ccccc21 [Example 2, 5,6-dichloroindirubin-3′-methoxime]
recovery of cell migration rate (%) as compared to the control group (HaCaT cells [2]; first value of 'respectively' (0.1 μM indirubin derivative; mixture with 1 μg/mL extract)): 50%
recovery of cell migration rate (%) as compared to the control group (HaCaT cells [2]; second value of 'respectively' (1 μM indirubin derivative; mixture with 1 μg/mL extract)): 114%
expression of β-catenin, PCNA, keratin 14 and collagen I (mouse acute wound [3]): slightly lower as compared to the positive control group
acute wound healing as compared to the control group or the positive control group (mouse acute wound [4]): healed quickly
quantity of collagen (Masson's trichrome, Picrosirius red, van Gieson's stain) (mouse acute wound [5]; C3H mouse acute wound tissue, vs control group, Comparative Example 1, positive control group): remarkably increases the quantity of collagen
re-epithelialization of acute wound (mouse acute wound [5]; [6]): re-epithelialized comparably to or faster than the positive control group EGF
scar-reducing effect, repair of the epidermal layer of skin (mouse acute wound [5]; [6]): very effective in reducing scarring
wound repair effect as compared to the positive control group EGF (mouse acute wound [5]; C3H mouse, 1.5×1.5 cm^2 wound, 20 μL once daily for 12 days, EGF 100 μM): 2-6 times
angiogenesis around the wound site (diabetic wound): increased angiogenesis
healing of the wound site (diabetic wound): healing of the wound site was promoted similarly to the normal control group
re-epithelialization (H&E) (diabetic wound): re-epithelialization occurred quickly
collagen synthesis (Van Gieson's stain, Masson's trichrome) (diabetic wound; vs normal, negative and positive control group (VPA)): increased collagen synthesis

COC(=O)c1ccc(O)c(OC)c1 [Example 5, Methyl vanillate, reference compound]
acute wound healing as compared to the control group or the positive control group (mouse acute wound [4]): healed quickly
cell motility compared with the control group (HaCaT cells [1]): no difference in cell motility

CCCC(CCC)C(=O)O [VPA, valproic acid, reference compound]
healing of the wound site (diabetic wound): wound healing was delayed similarly to the negative control group
re-epithelialization (H&E) (diabetic wound): re-epithelialization did not occur even after 14 days

Source: patent US11773081B2, “Pharmaceutical composition for preventing or treating wound, comprising indirubin derivative as active ingredient” (CK Regeon Inc., priority 2018, dated 2023)
